Reference: patent US20240132431A1, “METHOD FOR ALKYLATING ACIDIC FUNCTIONAL GROUP” (Chugai Seiyaku Kabushiki Kaisha, priority 2021, published 2024)

Target: T1, Bcl-2 protein (Recombinant Human Bcl-2 Protein) (Homo sapiens, UniProt P10415)
T1 construct: purchased Novus NBP2-34889
Assay: Binding evaluation of mixture library compounds to Bcl-2 using AS-MS (affinity selection mass spectrometry)
Details: AS-MS, mixture of 1200 compounds, Bcl-2, ASMS Ratio(%)=(A−C)/B×100; for ASMS ratio (%) n = 1: replicate n = 1; for ASMS ratio (%) n = 2: replicate n = 2
Outline: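 Bcl-2 binding is scored from LC/MS signal retained with protein through gel-filtration spin columns, normalised to unfiltered and protein-free controls. Incubation: 20 μM protein, […] per compound, 1 h, 23° C.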

T1 sequence (P10415 whole entry): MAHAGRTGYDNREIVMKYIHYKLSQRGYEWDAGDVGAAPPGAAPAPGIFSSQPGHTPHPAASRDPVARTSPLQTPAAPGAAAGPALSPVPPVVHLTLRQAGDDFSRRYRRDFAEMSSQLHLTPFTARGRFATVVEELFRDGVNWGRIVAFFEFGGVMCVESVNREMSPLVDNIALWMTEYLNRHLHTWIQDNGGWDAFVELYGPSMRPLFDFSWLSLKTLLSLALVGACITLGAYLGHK

Structure (SMILES): CCOc1cncc(C#Cc2ccccc2C(=O)N2CCN(c3ccc(C(=O)NCC(F)(F)F)nn3)CC2)c1 [B1K008-01, 6-[4-[2-[2-(5-Ethoxypyridin-3-yl)ethynyl]benzoyl]piperazin-1-yl]-N-(2,2,2-trifluoroethyl)pyridazine-3-carboxamide]
- ASMS ratio (%) n = 1: 0.0%
- ASMS ratio (%) n = 2: 0.0%

Structure (SMILES): CCOc1cncc(C#Cc2cncc(C(=O)N3CCN(c4ccc(C(=O)NCC(F)(F)F)nn4)CC3)c2)c1 [B1K010-01, 6-[4-[5-[2-(5-Ethoxypyridin-3-yl)ethynyl]pyridine-3-carbonyl]piperazin-1-yl]-N-(2,2,2-trifluoroethyl)pyridazine-3-carboxamide]
- ASMS ratio (%) n = 1: 0.0%
- ASMS ratio (%) n = 2: 0.0%

Structure (SMILES): CCOc1cccc(-c2ccccc2CCC(=O)N2CCN(c3ccc(C(=O)NCC(F)(F)F)nn3)CC2)c1 [B1K011-01, 6-[4-[3-[2-(3-Ethoxyphenyl)phenyl]propanoyl]piperazin-1-yl]-N-(2,2,2-trifluoroethyl)pyridazine-3-carboxamide]
- ASMS ratio (%) n = 1: −0.1%
- ASMS ratio (%) n = 2: 0.3%

Structure (SMILES): CCOc1cncc(-c2ccccc2CCC(=O)N2CCN(c3ccc(C(=O)NCC(F)(F)F)nn3)CC2)c1 [B1K012-01, 6-[4-[3-[2-(5-Ethoxypyridin-3-yl)phenyl]propanoyl]piperazin-1-yl]-N-(2,2,2-trifluoroethyl)pyridazine-3-carboxamide]
- ASMS ratio (%) n = 1: 0.0%
- ASMS ratio (%) n = 2: −0.4%

Structure (SMILES): CCOc1cccc(-c2ccc(C(=O)N3CCN(c4ccc(C(=O)NCC(F)(F)F)nn4)CC3)c3ccccc23)c1 [B1K013-01, 6-[4-[4-(3-Ethoxyphenyl)naphthalene-1-carbonyl]piperazin-1-yl]-N-(2,2,2-trifluoroethyl)pyridazine-3-carboxamide]
- ASMS ratio (%) n = 1: 0.0%
- ASMS ratio (%) n = 2: 1.4%

Structure (SMILES): CCOc1cncc(-c2ccc(C(=O)N3CCN(c4ccc(C(=O)NCC(F)(F)F)nn4)CC3)c3ccccc23)c1 [B1K014-01, 6-[4-[4-(5-Ethoxypyridin-3-yl)naphthalene-1-carbonyl]piperazin-1-yl]-N-(2,2,2-trifluoroethyl)pyridazine-3-carboxamide]
- ASMS ratio (%) n = 1: −0.3%
- ASMS ratio (%) n = 2: 0.0%

Structure (SMILES): CCOc1cccc(-c2cc(C(=O)N3CCN(c4ccc(C(=O)NCC(F)(F)F)nn4)CC3)cc(C(C)(C)C)c2)c1 [B1K015-01, 6-[4-[3-tert-Butyl-5-(3-ethoxyphenyl)benzoyl]piperazin-1-yl]-N-(2,2,2-trifluoroethyl)pyridazine-3-carboxamide]
- ASMS ratio (%) n = 1: 2.9%
- ASMS ratio (%) n = 2: −1.8%

Structure (SMILES): CCOc1cncc(-c2cc(C(=O)N3CCN(c4ccc(C(=O)NCC(F)(F)F)nn4)CC3)cc(C(C)(C)C)c2)c1 [B1K016-01, 6-[4-[3-tert-Butyl-5-(5-ethoxypyridin-3-yl)benzoyl]piperazin-1-yl]-N-(2,2,2-trifluoroethyl)pyridazine-3-carboxamide]
- ASMS ratio (%) n = 1: 0.0%
- ASMS ratio (%) n = 2: 0.0%

Structure (SMILES): CCOc1cccc(-c2cc(C(=O)N3CCN(c4ccc(C(=O)NCC(F)(F)F)nn4)CC3)cc(C(F)(F)F)c2)c1 [B1K017-01, 6-[4-[3-(3-Ethoxyphenyl)-5-(trifluoromethyl)benzoyl]piperazin-1-yl]-N-(2,2,2-trifluoroethyl)pyridazine-3-carboxamide]
- ASMS ratio (%) n = 1: 0.0%
- ASMS ratio (%) n = 2: 0.0%

Structure (SMILES): CCOc1cncc(-c2cc(C(=O)N3CCN(c4ccc(C(=O)NCC(F)(F)F)nn4)CC3)cc(C(F)(F)F)c2)c1 [B1K018-01, 6-[4-[3-(5-Ethoxypyridin-3-yl)-5-(trifluoromethyl)benzoyl]piperazin-1-yl]-N-(2,2,2-trifluoroethyl)pyridazine-3-carboxamide]
- ASMS ratio (%) n = 1: −0.6%
- ASMS ratio (%) n = 2: 0.5%

Structure (SMILES): CCOc1cccc(C#Cc2cc(C(=O)N3CCN(c4ccc(C(=O)NCC(F)(F)F)nn4)CC3)cc(C(F)(F)F)c2)c1 [B1K019-01, 6-[4-[3-[2-(3-Ethoxyphenyl)ethynyl]-5-(trifluoromethyl)benzoyl]piperazin-1-yl]-N-(2,2,2-trifluoroethyl)pyridazine-3-carboxamide]
- ASMS ratio (%) n = 1: 0.0%
- ASMS ratio (%) n = 2: 0.0%
